# Laboratory results reported in US20210213039A1, “COMPOSITION CONTAINING ECTOINE OR HYDROXYECTOINE AS AN ACTIVE SUBSTANCE FOR PROMOTING THE REGENERATION OF INJURED BODY TISSUE” (Bitop AG, priority 2012, published 2021).
# Legend:
# [1] = test system: porcine ex-vivo skin punches; assay: Ex-vivo porcine wound healing model (skin punches, wound healing score); set-up: species or system pig; settings: for Wound healing progress based on the PBS control (MW) / Absolute wound healing progress (wound healing score, MW): 5 μl into the wound, after 48 h; for Wound healing progress based on the PBS control (MW): PBS isotonic = 1.00; for Absolute wound healing progress (wound healing score, MW): score 0-4; for Wound healing potential: porcine ex-vivo skin punches
# Description: An ex-vivo porcine wound healing model was used as it has been described in patent publication DE 103 17 400 B4.
# From the plicae of washed and sterilized pig ears sample punches 6 mm in diameter were taken. From the center of the punches the epidermis and the upper dermis were removed in an area of 3 mm. Immediately after the models had been generated 5 μl of the test substances were introduced into the wounds, while 5 μl of PBS were applied into the control models. After 48 h (t48 h) the models were flash-frozen and stored at −80° C.
# 14 test series each were carried out so that 8 to 11 evaluable models were available for each sample.
# The models were completely embedded in tissue freezing medium (company of Leica, Nussloch), and 6 μm thin sections were prepared using a cryostat. Care had been taken that the focus was always in the center of the respective model.
# The sections were placed on SuperFrost object slides, air dried, fixed for 10 min. in −20° C. cold acetone, and stored at −80° C.
# All models were stained with hematoxylin/eosin (2 sections each). The sequence of the staining process was as follows:
# The staining was evaluated by means of a Leica light microscope DM LS and an Olympus Camedia digital camera.
# 0: No wound healing progress 1: Small wound tongue 2: Large wound tongue 3: Closed sheet 4: Multi-layered closed sheet.
# In the event that both wound margins could be assessed the average between the left and the right wound margin was determined. The statistical evaluations were made using Student's paired T-test.
# [2] = test system: ARPE-19 cells (adherent retinal pigment epithelial cells); assay: Re-epithelialization scratch assay; format: cell-based; settings: for Gap width in treated cell cultures (re-epithelialization): first two days, especially in serum-free cultures; for Gap width in %: after 24 h, untreated sample = 100%
# Description: After 24 hours of incubation using 0, 0.1, 0.5, 1, 2.5 and 5 mM of ectoine/hydroxyectoine in serum-free and serum-containing media defined cell areas were removed (scratch assay) from a confluent cell layer of ARPE-19 cells (adherent retinal pigment epithelial cells). The width of the applied gap was determined via microscope at previously marked places. 24 and 48 hours later in each case a photo documentation was prepared with the gap width being again determined at the respective places. 6 tests were performed for each concentration.
# The mean value of the gap widths after 24 h of the sample not treated with ectoine was determined to be 100%. The following gap width percentages could be detected: […]
# [3] = test system: HaCaT cells (human skin cells); assay: Wound closure in vitro: circular injury in a HaCaT monolayer; format: cell-based; settings: for Area of Injury (MW): 0.5% FCS, n=4
# Description: Plating of HaCaT cells (human skin cells) took place on collagen-I coated 24-well plates. With a complete medium (10% FCS=fetal calf serum) the cells grew together as monolayer within a period of 24 h.
# After this cell layer had closed a circular injury was applied in the center using a sterile tip of a defined diameter that averaged 0.68 mm (0.363 mm^2).
# When the injury had been applied the complete medium was changed to a starvation medium containing only 0.5 w/w of FCS (fetal calf serum) instead of 10% w/w FCS. The following test solutions were then pipetted on the cells (per solution: n=4):
# 0.5% FCS+PBS (phosphate buffered saline), control solution 0.5 FCS+1 mM ectoine 0.5 FCS+10 mM ectoine 0.5% FCS+100 mM ectoine.
# Over a time span of 48 h the cells were incubated with the test solutions during which wound closure was documented with the aid of a digital camera. In each case photos were taken at the beginning and then at 24-h intervals. The area still found to be free in each case was measured or calculated and expressed in mm^2. The results can be seen from the following tables (SD: Standard deviation, MW: Mean value): […]
smiles,measurement,setting,value
"CC1=NC[C@H](O)[C@@H](C(=O)O)N1 [HE I, Hydroxyectoine]",Wound healing progress based on the PBS control (MW),[1],1.05
same,"Absolute wound healing progress (wound healing score, MW)",[1],1.92
"OCC(CO)O[C@H]1O[C@H](CO)[C@@H](O)[C@H](O)[C@H]1O [GG hypertonic, Glucosylglycerol]",Wound healing progress based on the PBS control (MW),[1],1.17
same,"Absolute wound healing progress (wound healing score, MW)",[1],1.66
"OCC(CO)OC1OC(CO)[C@@H](O)C(O)C1O (stereo in doubt) [glucosylglycerol, 2-O-α-D-glucosylglycerol]",Wound healing potential,[1],improved wound healing potential
"CC1=NC[C@H](O)[C@@H](C(=O)O)N1 [HE hypertonic, Hydroxyectoine]",Wound healing progress based on the PBS control (MW),[1],1.21
same,"Absolute wound healing progress (wound healing score, MW)",[1],2.08
"CC1=NC[C@H](O)[C@@H](C(=O)O)N1 [hydroxyectoine, (4S,5S)-5-hydroxy-2-methyl-1,4,5,6-tetrahydropyrimidine-4-carboxylic acid]",Wound healing potential,[1],improved wound healing potential
same,"Re-epithelialization, hydroxyectoine compared with ectoine",[2],slightly more effective with hydroxyectoine than with ectoine
same,Gap width in treated cell cultures (re-epithelialization),[2],diminished faster
"CC1=NCC[C@@H](C(=O)O)N1 [ectoine, (S)-2-methyl-1,4,5,6-tetrahydropyrimidine-4-carboxylic acid]",Gap width in %,[2]; 0.1 mM ectoine,100.687%
same,Gap width in %,[2]; 0.5 mM ectoine,96.434%
same,Gap width in %,[2]; 1 mM ectoine,91.632%
same,Gap width in %,[2]; 2.5 mM ectoine,93.012%
same,Gap width in %,[2]; 5 mM ectoine,88.418%
same,Gap width in treated cell cultures (re-epithelialization),[2],diminished faster
same,Closure of the circular injury in comparison with the control solution,[3]; 1 mM ectoine,marked tendency towards faster closure
same,Area of Injury (MW),"[3]; 1 mM ectoine, after 0 hours",0.354 mm^2
same,Area of Injury (MW),"[3]; 1 mM ectoine, after 24 hours",0.157 mm^2
same,Area of Injury (MW),"[3]; 1 mM ectoine, after 48 hours",0.042 mm^2
same,Closure of the circular injury in comparison with the control solution,[3]; 10 mM ectoine,marked tendency towards faster closure
same,Area of Injury (MW),"[3]; 10 mM ectoine, after 0 hours",0.351 mm^2
same,Area of Injury (MW),"[3]; 10 mM ectoine, after 24 hours",0.182 mm^2
same,Area of Injury (MW),"[3]; 10 mM ectoine, after 48 hours",0.023 mm^2
same,Closure of the circular injury in comparison with the control solution,[3]; 100 mM ectoine,delayed healing
same,Area of Injury (MW),"[3]; 100 mM ectoine, after 0 hours",0.325 mm^2
same,Area of Injury (MW),"[3]; 100 mM ectoine, after 24 hours",0.244 mm^2
same,Area of Injury (MW),"[3]; 100 mM ectoine, after 48 hours",0.171 mm^2
"OCC(CO)O[C@H]1O[C@H](CO)[C@@H](O)[C@H](O)[C@H]1O [GG I, Glucosylglycerol]",Wound healing progress based on the PBS control (MW),[1],1.42
same,"Absolute wound healing progress (wound healing score, MW)",[1],2.12
